Test results reported in ChEMBL document CHEMBL4270590, “Azulene-based compounds for targeting orexin receptors” (Eur J Med Chem, 2018).
Activity calls are given as the source filed them. The rule behind the calls is not given here.

Assays:
[1] = target: T1, Orexin/Hypocretin receptor type 1 (Homo sapiens) (UniProt O43613); experiment: Displacement of [125I]-orexin-A from human OX1 receptor expressed in CHOK1 cells at 10 uM incubated for 10 mins and measured after 90 mins by liquid scintillation counting method relative to control; assay type: cell-based
T1 sequence (whole entry): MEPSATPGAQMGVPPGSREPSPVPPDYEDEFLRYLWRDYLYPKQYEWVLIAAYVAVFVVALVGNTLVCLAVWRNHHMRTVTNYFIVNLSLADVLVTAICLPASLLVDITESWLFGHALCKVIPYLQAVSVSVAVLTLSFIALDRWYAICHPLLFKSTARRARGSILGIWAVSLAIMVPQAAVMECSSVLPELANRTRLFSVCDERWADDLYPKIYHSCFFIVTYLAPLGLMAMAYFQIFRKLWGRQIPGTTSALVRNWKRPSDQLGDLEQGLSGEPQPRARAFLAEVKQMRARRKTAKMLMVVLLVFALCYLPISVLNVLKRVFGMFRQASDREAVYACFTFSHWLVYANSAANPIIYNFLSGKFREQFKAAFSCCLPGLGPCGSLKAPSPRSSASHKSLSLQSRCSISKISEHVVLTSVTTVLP

[2] = target: T2, Orexin/Hypocretin receptor type 1 (Homo sapiens, UniProt O43613); experiment: Antagonist activity at human OX1 receptor expressed in CHOK1 cells assessed as inhibition of orexin-A-induced calcium accumulation preincubated for 30 mins followed by orexin-A addition measured for 150 secs by calcium-4 dye based FLIPR assay; assay type: functional, cell-based; settings: read-out: Ki(app)
T2 sequence (O43613 whole entry): T1 sequence (whole entry)

[3] = target: T3, Orexin receptor type 2 (Homo sapiens) (UniProt O43614); experiment: Displacement of [125I]-orexin-A from human OX2 receptor expressed in CHOK1 cells at 10 uM incubated for 10 mins and measured after 90 mins by liquid scintillation counting method relative to control; assay type: cell-based
T3 sequence (whole entry): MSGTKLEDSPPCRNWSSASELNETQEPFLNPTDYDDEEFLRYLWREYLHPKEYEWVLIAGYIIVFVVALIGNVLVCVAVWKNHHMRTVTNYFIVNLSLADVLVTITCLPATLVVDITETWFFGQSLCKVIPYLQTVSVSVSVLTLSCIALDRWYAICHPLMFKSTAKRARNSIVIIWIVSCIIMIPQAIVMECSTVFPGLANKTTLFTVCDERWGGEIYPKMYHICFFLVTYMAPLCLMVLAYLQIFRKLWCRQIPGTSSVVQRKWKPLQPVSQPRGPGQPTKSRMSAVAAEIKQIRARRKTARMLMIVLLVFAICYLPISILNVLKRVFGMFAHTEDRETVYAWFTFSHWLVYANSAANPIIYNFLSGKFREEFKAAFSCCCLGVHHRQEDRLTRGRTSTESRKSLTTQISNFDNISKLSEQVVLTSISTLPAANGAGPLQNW

Orexin receptor type 2 = target: T4, Orexin receptor type 2 (Homo sapiens, UniProt O43614); experiment: Antagonist activity at human OX2 receptor expressed in CHOK1 cells assessed as inhibition of orexin-A-induced calcium accumulation preincubated for 30 mins followed by orexin-A addition measured for 150 secs by calcium-4 dye based FLIPR assay; assay type: functional, cell-based; settings: read-out: Ki(app)
T4 sequence (O43614 whole entry): T3 sequence (whole entry)

[4] = target: T1, Orexin/Hypocretin receptor type 1 (Homo sapiens); experiment: Agonist activity at human OX1 receptor expressed in CHOK1 cells assessed as increase in calcium accumulation at 10 uM incubated for 30 mins measured for 150 secs by calcium-4 dye based FLIPR assay relative to orexin-A; assay type: functional, cell-based
[5] = target: T3, Orexin receptor type 2 (Homo sapiens); experiment: Agonist activity at human OX2 receptor expressed in CHOK1 cells assessed as increase in calcium accumulation at 10 uM incubated for 30 mins measured for 150 secs by calcium-4 dye based FLIPR assay relative to orexin-A; assay type: functional, cell-based
[6] = Colloidal aggregating behavior of the compound at 18 to 30 uM by nephelometric method; assay type: physicochemical
[7] = target: T1, Orexin/Hypocretin receptor type 1 (Homo sapiens); experiment: Allosteric agonist activity at human OX1 receptor expressed in CHOK1 cells assessed as potentiation of orexin-A induced calcium accumulation at 5 uM preincubated for 30 mins followed by orexin-A addition and measured for 150 secs by calcium-4 dye based FLIPR assay relative to control; assay type: functional, cell-based
[8] = target: T1, Orexin/Hypocretin receptor type 1 (Homo sapiens); experiment: Allosteric agonist activity at human OX1 receptor expressed in CHOK1 cells assessed as potentiation of orexin-A induced calcium accumulation at 10 uM preincubated for 30 mins followed by orexin-A addition and measured for 150 secs by calcium-4 dye based FLIPR assay relative to control; assay type: functional, cell-based
[9] = target: T3, Orexin receptor type 2 (Homo sapiens); experiment: Allosteric agonist activity at human OX2 receptor expressed in CHOK1 cells assessed as potentiation of orexin-A induced calcium accumulation at 10 uM preincubated for 30 mins followed by orexin-A addition and measured for 150 secs by calcium-4 dye based FLIPR assay relative to control; assay type: functional, cell-based
[10] = target: T1, Orexin/Hypocretin receptor type 1 (Homo sapiens); experiment: Allosteric agonist activity at human OX1 receptor expressed in CHOK1 cells assessed as potentiation of orexin-A induced calcium accumulation preincubated for 30 mins followed by orexin-A addition and measured for 150 secs by calcium-4 dye based FLIPR assay; assay type: functional, cell-based
[11] = target: T3, Orexin receptor type 2 (Homo sapiens); experiment: Allosteric agonist activity at human OX2 receptor expressed in CHOK1 cells assessed as potentiation of orexin-A induced calcium accumulation preincubated for 30 mins followed by orexin-A addition and measured for 150 secs by calcium-4 dye based FLIPR assay; assay type: functional, cell-based
[12] = Solubility of the compound in water; assay type: physicochemical; settings: buffer
CHO-K1 = experiment: Effect on ATP-induced intracellular calcium accumulation in CHOK1 cells expressing human OXR at 10 uM incubated for 30 mins and measured for 150 secs by calcium-4 dye based FLIPR assay; assay type: functional, cell-based; settings: Cricetulus griseus

| fold change (FC) [7] | fold change (FC) [8] | fold change (FC) [9] | Activity [10] | Activity [11] | solubility [12] | Structure (SMILES) | inhibition [1] [%] | Ki [2] [µM] | inhibition [3] [%] | Ki (Orexin receptor type 2) [µM] | Emax [4] [%] | Emax [5] [%] | Activity [6] | Activity (CHO-K1) |
| --- | --- | --- | --- | --- | --- | --- | --- | --- | --- | --- | --- | --- | --- | --- |
| – | – | – | – | – | – | COC(=O)c1cccc2c(C=O)cc(I)c-2c1 | 40.7 | 4.8 | 47.2 | 3.6 | 1.59 | 0.68 | Active | – |
| 1.4 | 2.03 | 1.34 | Dose-dependent effect | Dose-dependent effect | Insoluble | COC(=O)Cc1ccc2ccc(C(=O)c3ccc(C(F)(F)F)cc3)c-2cc1 | – | – | 1 | – | 1.28 | 0.37 | – | inactive |
